According to patent US7432386B2, “Diarylbutadiene-substituted methyltrialkylsilanes and photoprotective compositions comprised thereof” (L'Oreal, priority 2003, dated 2008):

Assay: UV absorption spectrum in ethanol
Assay type: physicochemical
Conditions: for UV E1% / UV εmax: at λmax

| SMILES | UV λmax | UV E1% | UV εmax |
| --- | --- | --- | --- |
| C[Si](C)(C)COC(=O)C(=CC=C(c1ccccc1)c1ccccc1)C(=O)OC[Si](C)(C)C [Example 1] | 333 nm | 614 | 28 610 |
| CCOC(=O)/C(=C/C=C(c1ccccc1)c1ccccc1)C(=O)OC[Si](C)(C)C [Example 2] | 334 nm | 692 | 28 270 |
| C[Si](C)(C)COC(=O)/C(C#N)=C\C=C(c1ccccc1)c1ccccc1 [Example 3, monotrimethylsilanylmethyl ester of 2-cyano-5,5-diphenyl-2,4-pentadienoic acid] | 360 nm | 800 | 28 880 |
